Series [1] relates to 3T3-L1. Kind of series: Cytotoxicity against mouse 3T3L1 cells up to 48 hrs by MTT assay. To be noted: 3t3-l1, 48 h. Format: cell-based.
The test system of series [2] is 3T3-L1. Kind of series: Anti-adipogenic activity in mouse 3T3L1 cells assessed as reduction in lipid accumulation at 25 uM administered for 8 days measured post last dose by Oil Red O staining based assay relative to control. Format: functional. Further details: scale not given: the % may be the effect or the level left.
In series [3] the test system is 3T3-L1. As to the kind of experiment: Anti-adipogenic activity in mouse 3T3L1 cells assessed as reduction in lipid accumulation at 50 uM administered for 8 days measured post last dose by Oil Red O staining based assay relative to control. Further details: scale not given: the % may be the effect or the level left. Format: functional.
For series [4], the system named is 3T3-L1. Kind of series: Anti-adipogenic activity in mouse 3T3L1 cells assessed as reduction in lipid accumulation at 100 uM administered for 8 days measured post last dose by Oil Red O staining based assay relative to control. Format: functional. Details: scale not given: the % may be the effect or the level left.
Series [5] concerns the target T1, Pancreatic triacylglycerol lipase (Sus scrofa, UniProt P00591).
T1 sequence (P00591 whole entry): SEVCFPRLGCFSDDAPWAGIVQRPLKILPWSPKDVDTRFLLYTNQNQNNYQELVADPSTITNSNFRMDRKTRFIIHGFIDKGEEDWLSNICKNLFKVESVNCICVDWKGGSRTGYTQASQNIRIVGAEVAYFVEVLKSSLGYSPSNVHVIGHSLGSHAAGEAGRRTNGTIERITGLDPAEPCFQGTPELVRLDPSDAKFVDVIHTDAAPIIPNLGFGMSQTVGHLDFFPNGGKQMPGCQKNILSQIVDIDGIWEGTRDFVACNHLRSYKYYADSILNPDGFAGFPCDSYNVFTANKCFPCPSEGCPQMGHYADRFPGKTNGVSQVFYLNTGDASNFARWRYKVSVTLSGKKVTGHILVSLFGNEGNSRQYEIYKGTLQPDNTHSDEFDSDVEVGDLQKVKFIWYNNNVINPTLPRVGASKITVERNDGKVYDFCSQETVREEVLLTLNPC
As to the kind of experiment: Inhibition of porcine pancreatic lipase using p-nitrophenyl butyrate as substrate pretreated for 15 mins followed by substrate addition measured after 15 mins by spectrophotometric method.

Series [6] has as its target T1, Pancreatic triacylglycerol lipase. As to the kind of experiment: Inhibition of porcine pancreatic lipase using p-nitrophenyl butyrate as substrate pretreated for 15 mins followed by substrate addition measured after 15 mins in presence of plasma by spectrophotometric method.

pIC50: −log10 of the molar value.

Consider five compounds from ChEMBL document CHEMBL4043262, “Plasma-induced dimerization of phloridzin as a new class of anti-adipogenic agents” (Bioorg Med Chem Lett, 2017).

In general, pIC50 refers to the negative decadic logarithm of the IC50, by convention in mol/L.

Regarding `O=C(CCc1ccc(O)cc1)c1c(O)cc(O)c(Cc2c(O)cc(O)c(C(=O)CCc3ccc(O)cc3)c2O)c1O`, the Activity result was “Non-Toxic” in series [1], 60.3% in series [2], 45.7% in series [3] and 36.5% in series [4]. In series [5], the pIC50 was 5.28.

In the case of `O=C(CCc1ccc(O)cc1)c1c(O[C@@H]2O[C@H](CO)[C@@H](O)[C@H](O)[C@H]2O)cc(O)c(Cc2c(O)cc(O[C@@H]3O[C@H](CO)[C@@H](O)[C@H](O)[C@H]3O)c(C(=O)CCc3ccc(O)cc3)c2O)c1O`, the Activity result in series [1] is “Non-Toxic”. In addition, the pIC50 in series [5] was 3.59.

With `O=C(CCc1ccc(O)cc1)c1c(O)cc(O)c(Cc2c(O)cc(O[C@@H]3O[C@H](CO)[C@@H](O)[C@H](O)[C@H]3O)c(C(=O)CCc3ccc(O)cc3)c2O)c1O`, the Activity entry in series [1] is on record as “Non-Toxic”. The pIC50 in series [5] is 4.83.

For the compound `O=C(CCc1ccc(O)cc1)c1c(O)cc(O)cc1O` [PHLORETIN], the Activity entry in series [1] is listed as “Non-Toxic”. For the same compound, the pIC50 in series [5] was 4.30.

Turning to `O=C(CCc1ccc(O)cc1)c1c(O)cc(O)cc1O[C@@H]1O[C@H](CO)[C@@H](O)[C@H](O)[C@H]1O` [PHLORIZIN], in series [1], the Activity entry is reported as “Non-Toxic”. Also, the pIC50 in series [6] was 4.17; in series [5], below 3.52.
